Assay results reported in US12110281B2, “Catechol derivatives or salt thereof, processes for preparing the same, and pharmaceutical compositions comprising the same” (HEXAPHARMATEC CO., LTD., priority 2018, dated 2024).
“And” between values parts separate entries of the source, which are not always exact repeats. Equal entries are not always repeated.

What was measured:
[1] = system: dimethylnitrosamine (DMN)-induced liver injury male SD rats; assay: Liver function-improving activities by oral administration in the liver injury model (1), 3 weeks; type: in vivo, rat; details: serum, 25 mg/kg oral once a day
Text: The compounds according to the present invention were orally administered to dimethylnitrosamine (DMN)-induced liver injury male SD rats for 3 weeks, so as to evaluate liver function-improving activities. Specifically, 7-week-old male SD rats (Orient Bio, Korea) were accommodated to the laboratory environment at room temperature for 7 days. General symptoms were observed and then only healthy animals were used for the experiment. The rats were divided into 9 groups (n=5 for each group), the normal control group, the group to which only DMN is administered, and the groups to which both the compound of the present invention (the compounds of Example 2, 5, 6, 9, 10, 20 or 21) and DMN are administered. DMN was dissolved in purified water and then administered intraperitoneally at the dose of 10 mg/kg for 3 consecutive weeks (3 times per week, for 4 weeks). Blood samples were collected on Day 3 after the completion of the first-week liver injury inducement and then the ALT (Alanine Transaminase) values and the AST (Aspartate Transaminase) values were measured so as to confirm the liver injury thereof. The compounds of the present invention were administered for 3 weeks, i.e., from Day 4 after the completion of the first-week liver injury inducement to the DMN-administering period. The seven compounds of the present invention were dissolved in purified water or corn oil and then orally administered, using an oral sonde, at the dose of 25 mg/kg once a day for 3 weeks. Blood samples were collected on Day 0 (3 days after the completion of the first-week liver injury inducement) and Day 7, 14 and 21 after the administration of the test compounds. The collected blood was injected into a vacutainer tube containing a clot activator and then allowed to stand at room temperature for about 20 minutes so as to coagulate each blood sample. After centrifugation for 10 minutes, the resulting serums were subjected to blood-biochemical tests.

[2] = system: dimethylnitrosamine (DMN)-induced liver injury male SD rats; assay: Liver function-improving activities by oral administration in the liver injury model (2), 4 weeks, serum ALT/AST and liver histology; type: in vivo, rat; details: for ALT values (average value) / AST values (average value): serum
Text: The compounds according to the present invention were orally administered to dimethylnitrosamine (DMN)-induced liver injury male SD rats for 4 weeks, so as to evaluate liver function-improving activities. Specifically, 7-week-old male SD rats (Orient Bio, Korea) were accommodated to the laboratory environment at room temperature for 7 days. General symptoms were observed and then only healthy animals were used for the experiment. The rats were divided into 3 groups (n=10 for each group), the normal control group, the group to which only DMN is administered, and the group to which both the compound of the present invention (the compound of Example 21) and DMN are administered. DMN was dissolved in purified water and then administered intraperitoneally at the dose of 10 mg/kg for 3 consecutive weeks (3 times per week, for 4 weeks). Blood samples were collected after the completion of the fourth-week liver injury inducement and then the ALT (Alanine Transaminase) values and the AST (Aspartate Transaminase) values were measured so as to confirm the liver injury thereof. The compound of the present invention was administered for 4 weeks, from Day 1 after the completion of the fourth-week liver injury inducement. The compound of the present invention (the compound of Example 21) was dissolved in purified water and then orally administered, using an oral sonde, at the dose of 25 mg/kg once a day for 4 weeks. Blood samples were collected on Day 0 (1 day after the completion of the fourth-week liver injury inducement) and Day 7, 14, 21 and 28 after the administration of the test compound. The collected blood was injected into a vacutainer tube containing a clot activator and then allowed to stand at room temperature for about 20 minutes so as to coagulate each blood sample. After centrifugation for 10 minutes, the resulting serums were subjected to blood-biochemical tests. In addition, at 24 hours after the last administration, an autopsy for hepatectomy and fixation was performed to prepare the tissue specimens thereof. After preparing the slides with the tissue specimens, hematoxylin and eosin (H&E) staining was performed thereon for microscopic observation of damages to liver tissue and inflammatory cell infiltrations in liver tissues. In addition, Masson's trichrome staining was also performed thereon for microscopic observation of collagen fiber depositions in liver tissues.
In addition, the results obtained by performing hematoxylin and eosin (H&E) staining and Masson's trichrome staining as described above are shown in FIGS. 3 and 4, respectively. From the results of FIG. 3, the degrees of damages to liver tissue and the degrees of inflammatory cell infiltrations in liver tissues were measured. And also, from the results of FIG. 4, the degrees of collagen fiber depositions in liver tissues were measured.

[3] = 0 week (Day 0, before administration of test compound)
[4] = 3 weeks after the administration
[5] = 4 weeks after the administration
[6] = liver tissue, H&E staining, after 4 weeks 25 mg/kg oral, hydrochloride
[7] = 0 week (Day 0, after 4 weeks DMN), 25 mg/kg oral once a day
[8] = 1 week, 25 mg/kg oral once a day after 4 weeks DMN
[9] = 2 weeks, 25 mg/kg oral once a day after 4 weeks DMN
[10] = 3 weeks, 25 mg/kg oral once a day after 4 weeks DMN
[11] = 4 weeks, 25 mg/kg oral once a day after 4 weeks DMN

Structure (SMILES): CCN(CC)CCOc1ccc(-c2ccc(C(=O)NCC3(N(C)C)CCOCC3)s2)cc1OC.Cl.Cl [Example 21, N-((4-(dimethylamino)tetrahydro-2H-pyran-4-yl)methyl)-5-(4-(2-diethylamino)ethoxy-3-methoxyphenyl)thiophene-2-carboxamide hydrochloride]
- ALT values (average value) [1, 3]: 70.98 U/L
- AST values (average value) [1, 3]: 142.10 U/L
- ALT values (average value) ([1]; 1 week): 98.84 U/L
- AST values (average value) ([1]; 1 week): 201.30 U/L
- ALT values (average value) ([1]; 2 weeks): 104.54 U/L
- AST values (average value) ([1]; 2 weeks): 208.26 U/L
- ALT values (average value) ([1]; 3 weeks): 101.18 U/L
- AST values (average value) ([1]; 3 weeks): 195.10 U/L
- ALT decrease in comparison with the DMN-administered group [2, 4]: 30%
- AST decrease in comparison with the DMN-administered group [2, 4]: 22%
- ALT decrease in comparison with the DMN-administered group [2, 5]: 26%
- AST decrease in comparison with the DMN-administered group [2, 5]: 30%
- collagen fiber depositions in liver tissues reduced in comparison with the DMN-administered group ([2]; after 4 weeks): about 62%
- damages to liver tissue ameliorated in comparison with the DMN-administered group ([2]; after 4 weeks): about 50%
- inflammatory cell infiltrations in liver tissues ameliorated in comparison with the DMN-administered group ([2]; after 4 weeks): ~55%
- Degenerative hepatocyte numbers [2, 6]: 276.0 cells/1000 cells and 276.00 ± 16.64 cells/1000 cells
- Inflammatory cell numbers [2, 6]: 85.33 cells/mm^2 and 85.33 ± 8.41 cells/mm^2
- Collagen fiber occupied regions ([2]; liver tissue, Masson's trichrome staining, after 4 weeks 25 mg/kg oral, hydrochloride): 10.98 %/mm^2 and 10.98 ± 1.33 %/mm^2
- ALT values (average value) [2, 7]: 198.02 U/L
- AST values (average value) [2, 7]: 329.92 U/L
- ALT values (average value) [2, 8]: 92.71 U/L
- AST values (average value) [2, 8]: 158.91 U/L
- ALT values (average value) [2, 9]: 57.61 U/L
- AST values (average value) [2, 9]: 107.61 U/L
- ALT values (average value) [2, 10]: 44.48 U/L
- AST values (average value) [2, 10]: 112.06 U/L
- ALT values (average value) [2, 11]: 48.33 U/L
- AST values (average value) [2, 11]: 110.45 U/L
